For experiment [1], the target named is T1, Full length DGKζ (in-house protein M1-V929) (Homo sapiens, UniProt Q13574).
T1 construct: His (N); TEV site (N); made in house; host or cells: Sf9 insect cells (Bac-to-Bac baculovirus)
In words: Biochemical DGK IC50 assay (ADP-Glo, lipid micelle substrate), DGKζ. Conditions: 1 hour preincubation, 1 hour reaction, room temperature. The procedure, abridged: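 Enzyme: full-length human DGKζ M1-V929, produced in baculovirus-infected Sf9 cells; substrate DAG/PS micelles. Buffer 50 mM HEPES, 10 mM MgCl2, 0.01 mM CaCl2, 0.1 mM Na3VO4.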

Experiment [2] deals with T2, Full length DGKα (D21-10BG, SignalChem) (Homo sapiens, UniProt P23743).
T2 construct: Full length DGKα (D21-10BG, SignalChem); purchased SignalChem D21-10BG
In words: Biochemical DGK IC50 assay (ADP-Glo, lipid micelle substrate), DGKα. Conditions: 1 hour preincubation, 1 hour reaction, room temperature. The method, boiled down: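 ADP-Glo luminescence quantified ADP produced after a 1 h room-temperature reaction of full-length DGKα on DAG/PS micelles, in HEPES buffer containing MgCl2, CaCl2, vanadate, BSA and Tween-20. IC50 values derive from activity inhibition over a compound concentration series.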
In general terms: In ADP-Glo the light output rises with the ADP produced.

This passage reports IC50 results from patent publication US20260125378A2, “Heterocyclic Compounds” (BeOne Medicines I GmbH, priority 2023, published 2026).

T2 sequence (P23743 whole entry): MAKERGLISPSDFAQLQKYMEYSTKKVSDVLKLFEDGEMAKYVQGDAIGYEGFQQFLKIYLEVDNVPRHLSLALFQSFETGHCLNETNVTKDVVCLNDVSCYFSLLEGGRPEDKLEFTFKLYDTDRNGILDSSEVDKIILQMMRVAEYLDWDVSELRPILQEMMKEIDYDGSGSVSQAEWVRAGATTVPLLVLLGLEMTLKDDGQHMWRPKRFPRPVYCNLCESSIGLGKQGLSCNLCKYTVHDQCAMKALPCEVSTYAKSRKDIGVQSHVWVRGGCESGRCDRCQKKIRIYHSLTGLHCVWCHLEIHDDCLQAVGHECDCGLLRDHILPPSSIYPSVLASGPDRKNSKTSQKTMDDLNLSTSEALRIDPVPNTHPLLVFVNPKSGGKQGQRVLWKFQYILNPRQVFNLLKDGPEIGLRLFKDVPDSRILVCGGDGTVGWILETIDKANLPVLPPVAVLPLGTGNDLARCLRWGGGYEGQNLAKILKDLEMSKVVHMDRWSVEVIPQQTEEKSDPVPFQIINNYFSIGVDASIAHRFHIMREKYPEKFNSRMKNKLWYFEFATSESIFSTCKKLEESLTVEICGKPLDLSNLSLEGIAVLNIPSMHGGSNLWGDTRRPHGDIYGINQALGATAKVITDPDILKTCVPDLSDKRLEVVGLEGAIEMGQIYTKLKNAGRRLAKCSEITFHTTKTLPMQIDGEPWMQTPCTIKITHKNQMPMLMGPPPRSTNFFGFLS
T1 sequence (Q13574 1-929 isoform Q13574-4): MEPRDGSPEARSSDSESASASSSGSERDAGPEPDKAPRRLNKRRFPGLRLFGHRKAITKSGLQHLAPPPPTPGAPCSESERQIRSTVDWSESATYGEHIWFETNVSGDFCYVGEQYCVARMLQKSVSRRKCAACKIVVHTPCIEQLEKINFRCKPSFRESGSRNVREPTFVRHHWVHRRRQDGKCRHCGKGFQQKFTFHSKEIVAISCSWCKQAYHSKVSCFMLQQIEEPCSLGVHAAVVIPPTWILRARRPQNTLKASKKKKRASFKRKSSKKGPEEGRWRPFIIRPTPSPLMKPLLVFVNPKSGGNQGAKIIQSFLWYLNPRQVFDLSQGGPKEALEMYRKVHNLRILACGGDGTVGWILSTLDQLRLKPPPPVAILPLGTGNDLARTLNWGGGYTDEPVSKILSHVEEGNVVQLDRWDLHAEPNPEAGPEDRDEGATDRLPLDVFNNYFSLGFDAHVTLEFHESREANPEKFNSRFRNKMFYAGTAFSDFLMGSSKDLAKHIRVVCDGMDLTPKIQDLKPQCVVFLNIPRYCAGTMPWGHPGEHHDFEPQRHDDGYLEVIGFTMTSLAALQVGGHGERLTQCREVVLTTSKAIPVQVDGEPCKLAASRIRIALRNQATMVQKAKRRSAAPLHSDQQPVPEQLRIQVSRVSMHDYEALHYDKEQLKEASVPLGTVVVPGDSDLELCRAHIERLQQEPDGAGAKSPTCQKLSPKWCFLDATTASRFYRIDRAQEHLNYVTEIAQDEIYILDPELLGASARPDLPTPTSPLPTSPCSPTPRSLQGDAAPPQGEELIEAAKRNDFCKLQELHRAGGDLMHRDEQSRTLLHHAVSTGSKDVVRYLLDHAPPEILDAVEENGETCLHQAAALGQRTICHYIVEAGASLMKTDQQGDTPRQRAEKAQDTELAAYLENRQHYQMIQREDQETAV

With `CC(c1ccc2nccnc2c1)N1C[C@H](C)N(c2cc(=O)n(C)c3c2nc(CC#N)n3C)C[C@H]1C` (single isomer, unassigned) [Compound A1b], the figures for the IC50 in experiment [1] and in experiment [2] were 2350 nM and greater than 10000 nM, respectively.
Consider `CC(c1ccc2nccnc2c1)N1C[C@H](C)N(c2cc(=O)n(C)c3c2nc(CC#N)n3C)C[C@H]1C` (stereo partly drawn) [Compound A1, 2-(7-((2S,5R)-2,5-dimethyl-4-(1-(quinoxalin-6-yl)ethyl)piperazin-1-yl)-3,4-dimethyl-5-oxo-4,5-dihydro-3H-imidazo[4,5-b]pyridin-2-yl)acetonitrile], for which the half-inhibitory concentration (IC50) (as a rule, the point on the concentration scale where inhibition reaches its midpoint) in experiment [1] was 19 nM; in experiment [2], 20200 nM.
For the molecule `Cc1cccc(C(C)N2C[C@H](C)N(c3c(F)c(=O)n(C)c4c3nc(CC#N)n4C)C[C@H]2C)c1C(F)(F)F` (single isomer, unassigned) [Compound A17a], the figures for the IC50 in experiment [1] and in experiment [2] were 133 nM and 1460 nM, respectively.
As to `CCn1c(CC#N)nc2c(N3C[C@@H](C)N(C(C)c4ccc5c(c4F)OC(C)(C)O5)C[C@@H]3C)nc(=O)n(C)c21` (stereo partly drawn) [Compound A175, 2-(9-ethyl-6-((2S,5R)-4-(1-(4-fluoro-2,2-dimethylbenzo[d][1,3]dioxol-5-yl)ethyl)-2,5-dimethylpiperazin-1-yl)-3-methyl-2-oxo-3,9-dihydro-2H-purin-8-yl)acetonitrile], the values for the concentration for half-maximal inhibition (IC50) in experiment [1] and in experiment [2] were 5 nM and 22200 nM, respectively.
For `CCn1c(CC#N)nc2c(N3C[C@@H](C)N(C(C)c4cccc(C(F)(F)F)n4)C[C@@H]3C)nc(=O)n(C)c21` (single isomer, unassigned) [Compound A118b], the IC50 was found to be 103 nM in experiment [1] and 65600 nM in experiment [2].
Take `CCn1c(CC#N)nc2c(N3C[C@@H](C)N(C(C)c4ccc5c(c4)C(=O)N(C)C5=O)C[C@@H]3C)nc(=O)n(C)c21` (stereo partly drawn) [Compound A83, 2-(6-((2S,5R)-2,5-dimethyl-4-(1-(2-methyl-1,3-dioxoisoindolin-5-yl)ethyl)piperazin-1-yl)-9-ethyl-3-methyl-2-oxo-3,9-dihydro-2H-purin-8-yl)acetonitrile]: the half-inhibitory concentration (IC50) is 40 nM in experiment [1] and greater than 150000 nM in experiment [2].
Regarding `COC[C@H]1CN(C(C)c2ccc3c(c2)OCCO3)[C@H](C)CN1c1nc(=O)n(C)c2c1nc(CC#N)n2C` (single isomer, unassigned) [Compound A11b], the figures for the IC50 in experiment [1] and in experiment [2] were 14 nM and 11900 nM, respectively.
With `Cc1ccc(C(C)N2C[C@H](C)N(c3cc(=O)n(C)c4sc(CC#N)nc34)C[C@H]2C)c(C(F)(F)F)c1` (stereo partly drawn) [Compound A196, 2-(7-((2S,5R)-2,5-dimethyl-4-(1-(4-methyl-2-(trifluoromethyl)phenyl)ethyl)piperazin-1-yl)-4-methyl-5-oxo-4,5-dihydrothiazolo[5,4-b]pyridin-2-yl)acetonitrile], the concentration for half-maximal inhibition (IC50) is 749 nM in experiment [1] and greater than 10000 nM in experiment [2].
As for `CCc1nc2cc(C(C)N3C[C@H](C)N(c4nc(=O)n(C)c5c4nc(CC#N)n5CC)C[C@H]3C)ccc2s1` (single isomer, unassigned) [Compound A95b], the results for the half-inhibitory concentration (IC50) in experiment [1] and in experiment [2] were 555 nM and 108000 nM, respectively.
The corresponding values for `CCn1c(CC#N)nc2c(N3C[C@@H](C)N(C(C)c4ccc(N5CCOCC5)cc4)C[C@@H]3C)nc(=O)n(C)c21` (stereo partly drawn) [Compound A143, 2-(6-((2S,5R)-2,5-dimethyl-4-(1-(4-morpholinophenyl)ethyl)piperazin-1-yl)-9-ethyl-3-methyl-2-oxo-3,9-dihydro-2H-purin-8-yl)acetonitrile] are greater than 10000 nM and greater than 150000 nM.
Turning to `CC(c1cc(F)c2c(n1)OC(C)(C)CO2)N1C[C@H](C)N(c2nc(=O)n(C)c3c2nc(CC#N)n3C)C[C@H]1C` (stereo partly drawn) [Compound A164, 2-(6-((2S,5R)-4-(1-(8-fluoro-3,3-dimethyl-2,3-dihydro-[1,4]dioxino[2,3-b]pyridin-6-yl)ethyl)-2,5-dimethylpiperazin-1-yl)-3,9-dimethyl-2-oxo-3,9-dihydro-2H-purin-8-yl)acetonitrile], the IC50 is 31 nM in experiment [1] and 125000 nM in experiment [2].
For `CC(c1ccc2c(c1)OC(F)(F)C(F)(F)O2)N1C[C@H](C)N(c2nc(=O)n(C)c3c2nc(CC#N)n3C)C[C@H]1C` (single isomer, unassigned) [Compound A79a], the IC50 in experiment [1] turned out to be 38 nM; in experiment [2] it was 7280 nM.
Consider `CC(c1ccc(F)cc1C(F)F)N1C[C@H](C)N(c2nc(=O)n(C)c3c2nc(CC#N)n3C)C[C@H]1C` (stereo partly drawn) [Compound A30, 2-(6-((2S,5R)-4-(1-(2-(difluoromethyl)-4-fluorophenyl)ethyl)-2,5-dimethylpiperazin-1-yl)-3,9-dimethyl-2-oxo-3,9-dihydro-2H-purin-8-yl)acetonitrile], for which the figures for the IC50 in experiment [1] and in experiment [2] were 14 nM and 44300 nM, respectively.
On to `CCn1c(CC#N)nc2c(N3C[C@@H](C)N(C(C)c4ccc5c(c4F)OC(C)(C)CO5)C[C@@H]3C)nc(=O)n(C)c21` (stereo partly drawn) [Compound A71, 2-(9-ethyl-6-((2S,5R)-4-(1-(5-fluoro-3,3-dimethyl-2,3-dihydrobenzo[b][1,4]dioxin-6-yl)ethyl)-2,5-dimethylpiperazin-1-yl)-3-methyl-2-oxo-3,9-dihydro-2H-purin-8-yl)acetonitrile], for which the IC50 in experiment [1] was 48 nM; in experiment [2], 124000 nM.
The matching figures for `CCn1c(CC#N)nc2c(N3C[C@@H](C)N(C(C)c4cccc(C(C)C)c4)C[C@@H]3C)nc(=O)n(C)c21` (mixture of isomers) [Compound A108, 2-(9-ethyl-6-((2S,5R)-4-(1-(3-isopropylphenyl)ethyl)-2,5-dimethylpiperazin-1-yl)-3-methyl-2-oxo-3,9-dihydro-2H-purin-8-yl)acetonitrile]: 32 nM and 95100 nM.
The corresponding values for `CC[C@@H]1CN(c2nc(=O)n(C)c3c2nc(CC#N)n3C)[C@@H](C)CN1C(C)c1ccc2c(n1)OC(C)(C)CO2` (single isomer, unassigned) [Compound A159a] are 25 nM and 27400 nM.
As for `CCn1c(CC#N)nc2c(N3C[C@@H](C)N(C(C)c4ccc5c(c4F)OC(C)(C)O5)C[C@@H]3C)c(F)c(=O)n(C)c21` (single isomer, unassigned) [Compound A190a], the IC50 in experiment [1] is 3 nM; in experiment [2], greater than 150000 nM.
The corresponding values for `CC[C@@H]1CN(c2nc(=O)n(CC)c3c2nc(CC#N)n3C)[C@@H](C)CN1C(C)c1ccc2c(c1)OC(C)(C)CO2` (single isomer, unassigned) [Compound A66b] are 1 nM and 6860 nM.
For `CCn1c(CC#N)nc2c(N3C[C@@H](C)N(C(C)c4ccc5c(c4)OC(F)(F)O5)C[C@@H]3C)nc(=O)n(C)c21` (single isomer, unassigned) [Compound A99b], the concentration for half-maximal inhibition (IC50) stood at 536 nM in experiment [1] and 46500 nM in experiment [2].
Take `CCn1c(CC#N)nc2c(N3C[C@@H](C)N(C(C)c4ccc5c(c4)OC(C)(C)CO5)C[C@@H]3C)c(F)c(=O)n(C)c21` (stereo partly drawn) [Compound A20, 2-(7-((2S,5R)-4-(1-(3,3-dimethyl-2,3-dihydrobenzo[b][1,4]dioxin-6-yl)ethyl)-2,5-dimethylpiperazin-1-yl)-3-ethyl-6-fluoro-4-methyl-5-oxo-4,5-dihydro-3H-imidazo[4,5-b]pyridin-2-yl)acetonitrile]: the values for the concentration for half-maximal inhibition (IC50) in experiment [1] and in experiment [2] were 5 nM and 93000 nM, respectively.
Consider `CCn1c(CC#N)nc2c(N3C[C@@H](C)N(C(C)c4cc(F)cc(C(F)F)c4)C[C@@H]3C)nc(=O)n(C)c21` (stereo partly drawn) [Compound A38, 2-(6-((2S,5R)-4-(1-(3-(difluoromethyl)-5-fluorophenyl)ethyl)-2,5-dimethylpiperazin-1-yl)-9-ethyl-3-methyl-2-oxo-3,9-dihydro-2H-purin-8-yl)acetonitrile], for which the values for the IC50 in experiment [1] and in experiment [2] were 165 nM and 143000 nM, respectively.
The matching figures for `CCn1c(CC#N)nc2c(N3C[C@@H](C)N(C(C)c4ccc5c(c4F)OC(C)(C)O5)C[C@@H]3C)c(F)c(=O)n(C)c21` (mixture of isomers) [Compound A190, 2-(3-ethyl-6-fluoro-7-((2S,5R)-4-(1-(4-fluoro-2,2-dimethylbenzo[d][1,3]dioxol-5-yl)ethyl)-2,5-dimethylpiperazin-1-yl)-4-methyl-5-oxo-4,5-dihydro-3H-imidazo[4,5-b]pyridin-2-yl)acetonitrile]: 13 nM and 106000 nM.
The matching figures for `CCn1c(CC#N)nc2c(N3C[C@@H](C)N(C(C)c4nc5c(cc4F)OCC(C)(C)O5)C[C@@H]3C)nc(=O)n(C)c21` (mixture of isomers) [Compound A161, 2-(9-ethyl-6-((2S,5R)-4-(1-(7-fluoro-3,3-dimethyl-2,3-dihydro-[1,4]dioxino[2,3-b]pyridin-6-yl)ethyl)-2,5-dimethylpiperazin-1-yl)-3-methyl-2-oxo-3,9-dihydro-2H-purin-8-yl)acetonitrile]: 81 nM and greater than 150000 nM.
Take `CCn1c(CC#N)nc2c(N3C[C@@H](C)N(C(C)c4cccc(C5(C)CC5)c4)C[C@@H]3C)nc(=O)n(C)c21` (stereo partly drawn) [Compound A126, 2-(6-((2S,5R)-2,5-dimethyl-4-(1-(3-(1-methylcyclopropyl)phenyl)ethyl)piperazin-1-yl)-9-ethyl-3-methyl-2-oxo-3,9-dihydro-2H-purin-8-yl)acetonitrile]: the IC50 in experiment [1] was 24 nM; in experiment [2], 124000 nM.
Regarding `CC(c1ccc2c(c1)OCCO2)N1C[C@H](C)N(c2c(F)c(=O)n(C)c3c2nc(CC#N)n3C)C[C@H]1C` (single isomer, unassigned) [Compound A18a], the concentration for half-maximal inhibition (IC50) was determined as 19 nM in experiment [1] and 23600 nM in experiment [2].
